Measurements from PubChem BioAssay AID206 (DTP/NCI, 2004).
Values joined by “and” are separate entries in the source; they are usually repeats but may differ in a detail not shown here. Equal values may be shown once. Records with an inconclusive call do not appear. Positions of bridges follow the written chain, without caps; N, C: chain ends. Non-standard residues stand in square brackets, D forms with d. Residues, ends and D or L forms follow the SMILES beside them. Chains are numbered I, II in the order given. *: point of attachment. Quinoxaline2carbonyl = O=C(c1cnc2ccccc2n1)*; Trt = c1ccc(C(c2ccccc2)(c2ccccc2)*)cc1; NMeV = CN[CH](C(=O)O)C(C)C; NMeC = CN[CH](CS)C(=O)O; Cbz = O=C(OCc1ccccc1)*

Tested on: nude mice, HT29 intrarenal xenograft, tumor weight T/C
Assay: NCI In Vivo Anticancer Drug Screen. Data for tumor model HT29;CX-1 Human Adenocarcinoma (MER+) (intrarenal inoculation) in NU/NU Swiss (nude) mice
Conditions: endpoint: mean tumor weight change, higher = larger tumour
In short: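 Tumor-bearing mice received test compound or vehicle, and tumor size or survival was recorded. Values are the treated-group measurement divided by the vehicle-treated control measurement.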

[1] = dose: 300.0 mg/kg/injection, schedule: Q04DX004 (sc), vehicle: saline with Tween-80
[2] = dose: 200.0 mg/kg/injection, schedule: Q01DX010 (sc), vehicle: saline
[3] = dose: 400.0 mg/kg/injection, schedule: Q01DX010 (sc), vehicle: saline
[4] = dose: 100.0 mg/kg/injection, schedule: Q04DX004 (sc), vehicle: Klucel (hydroxypropylcellulose) (HPC)
[5] = dose: 200.0 mg/kg/injection, schedule: Q04DX004 (sc), vehicle: Klucel (hydroxypropylcellulose) (HPC)
[6] = dose: 400.0 mg/kg/injection, schedule: Q04DX004 (sc), vehicle: Klucel (hydroxypropylcellulose) (HPC)
[7] = dose: 300.0 mg/kg/injection, schedule: Q04DX004 (sc), vehicle: Klucel (hydroxypropylcellulose) (HPC)
[8] = dose: 600.0 mg/kg/injection, schedule: Q04DX004 (sc), vehicle: Klucel (hydroxypropylcellulose) (HPC)
[9] = dose: 1200.0 mg/kg/injection, schedule: Q04DX004 (sc), vehicle: Klucel (hydroxypropylcellulose) (HPC)
[10] = dose: 150.0 mg/kg/injection, schedule: Q04DX004 (sc), vehicle: saline with Tween-80
[11] = dose: 1200.0 mg/kg/injection, schedule: Q04DX004 (sc), vehicle: saline with Tween-80

With `COC(=O)[C@@]12OC[C@]34[C@H]([C@@H](O)[C@@H]1O)[C@@]1(C)CC(=O)C(O)=C(C)[C@@H]1C[C@H]3OC(=O)[C@H](OC(=O)/C=C(\C)C(C)C)[C@@H]24` the T/C (dose: 0.25 mg/kg/injection, schedule: Q04DX004 (sc), vehicle: saline + alcohol) was 67 % of control, the T/C (dose: 0.5 mg/kg/injection, schedule: Q04DX004 (sc), vehicle: saline with Tween-80) was 83 % of control and the T/C (dose: 1.0 mg/kg/injection, schedule: Q04DX004 (sc), vehicle: saline + alcohol) was 49 % of control and 62 % of control. For the same compound, the T/C (dose: 1.0 mg/kg/injection, schedule: Q04DX004 (sc), vehicle: saline with Tween-80) was 89 % of control, the T/C (dose: 2.0 mg/kg/injection, schedule: Q04DX004 (sc), vehicle: saline + alcohol) was 53 % of control and 65 % of control and the T/C (dose: 4.0 mg/kg/injection, schedule: Q04DX004 (sc), vehicle: saline + alcohol) was 72 % of control.
With `COC(=O)C(CSC(c1ccccc1)(c1ccccc1)c1ccccc1)NC(=O)C(CC(N)=O)NC(=O)OCc1ccccc1` (stereo not drawn) (Cbz-Asn-Cys(Trt)-OMe; configuration not given here) the T/C (dose: 150.0 mg/kg/injection, schedule: Q04DX004 (sc), vehicle: distilled water + Tween-80) was 63 % of control, the T/C (dose: 300.0 mg/kg/injection, schedule: Q04DX004 (sc), vehicle: distilled water + Tween-80) was 69 % of control and the T/C (dose: 600.0 mg/kg/injection, schedule: Q04DX004 (sc), vehicle: distilled water + Tween-80) was 81 % of control. For the same compound, the T/C (dose: 1200.0 mg/kg/injection, schedule: Q04DX004 (sc), vehicle: distilled water + Tween-80) was 83 % of control.
In the case of `CC1=C(C)C(=O)O[C@@H]([C@](C)(O)[C@]2(O)CC[C@@]3(O)[C@@H]4C[C@H]5O[C@]56[C@@H](O)C=CC(=O)[C@]6(C)[C@H]4CC[C@]23C)C1`, the T/C (dose: 4.0 mg/kg/injection, schedule: Q01DX010 (sc), vehicle: saline) was 169 % of control and the T/C (dose: 64.0 mg/kg/injection, schedule: Q01DX010 (sc), vehicle: saline) was 46 % of control.
With `CCS/C(SC)=C(/c1ccccc1)[P+](c1ccccc1)(c1ccccc1)c1ccccc1` the T/C (dose: 18.75 mg/kg/injection, schedule: Q04DX004 (sc), vehicle: Klucel (hydroxypropylcellulose) (HPC)) was 93 % of control.
`NC(N)=NOCC[C@@H](N)C(=O)O` was tested, and the T/C (dose: 150.0 mg/kg/injection, schedule: Q04DX004 (sc), vehicle: saline) was 108 % of control, the T/C (dose: 300.0 mg/kg/injection, schedule: Q04DX004 (sc), vehicle: saline) was 75 % of control and the T/C (dose: 600.0 mg/kg/injection, schedule: Q04DX004 (sc), vehicle: saline) was 76 % of control. For the same compound, the T/C (dose: 1200.0 mg/kg/injection, schedule: Q04DX004 (sc), vehicle: saline) was 62 % of control.
With `CCOC(=O)NC1=C(N2CC2)C(=O)C(NC(=O)OCC)=C(N2CC2)C1=O` the T/C (dose: 3.13 mg/kg/injection, schedule: Q04DX004 (sc), vehicle: suspension in saline) was 55 % of control.
With `[N-]=[N+]=C1N=CN=C1c1ncn[nH]1` the T/C (dose: 12.5 mg/kg/injection, schedule: Q01DX010 (sc), vehicle: Klucel (hydroxypropylcellulose) (HPC)) was 73 % of control and the T/C (dose: 25.0 mg/kg/injection, schedule: Q01DX010 (sc), vehicle: Klucel (hydroxypropylcellulose) (HPC)) was 41 % of control.
`CNC(=O)n1c(N)nc(-c2ccccc2)c1-c1ccccc1` was tested, and the T/C [1] was 92 % of control and the T/C (dose: 600.0 mg/kg/injection, schedule: Q04DX004 (sc), vehicle: saline with Tween-80) was 38 % of control.
`O=C1NC(O)CCN1C1OC(CO)C(O)C1O` (stereo not given) was tested, and the T/C (dose: 200.0 mg/kg/injection, schedule: Q01DX010 (sc), vehicle: water) was 83 % of control, the T/C (dose: 400.0 mg/kg/injection, schedule: Q01DX010 (sc), vehicle: water) was 70 % of control and the T/C (dose: 800.0 mg/kg/injection, schedule: Q01DX010 (sc), vehicle: water) was 63 % of control. The T/C (dose: 1600.0 mg/kg/injection, schedule: Q01DX010 (sc), vehicle: water) was 67 % of control.
`O=c1cnn(C2OC(CO)C(O)C2O)c(=O)[nH]1` (stereo not given) was tested, and the T/C [2] was 71 % of control, the T/C [3] was 100 % of control and the T/C (dose: 800.0 mg/kg/injection, schedule: Q01DX010 (sc), vehicle: saline) was 97 % of control. The T/C (dose: 1600.0 mg/kg/injection, schedule: Q01DX010 (sc), vehicle: saline) was 34 % of control.
With `Cc1c2cc[n+](C)cc2c(C)c2c1[nH]c1ccc(O)cc12` the T/C (dose: 1.25 mg/kg/injection, schedule: Q04DX004 (sc), vehicle: water) was 360 % of control and the T/C (dose: 2.5 mg/kg/injection, schedule: Q04DX004 (sc), vehicle: water) was 120 % of control.
In the case of `CC1NC(=O)C(NC(=O)c2cnc3ccccc3n2)COC(=O)C(C(C)C)N(C)C(=O)C2CSSCC(C(=O)N(C)C(C(C)C)C(=O)OCC(NC(=O)c3cnc4ccccc4n3)C(=O)NC(C)C(=O)N2C)N(C)C1=O` (stereo not given) (I: Quinoxaline2carbonyl-SA[NMeC][NMeV] / II: Quinoxaline2carbonyl-SA[NMeC][NMeV]; ester I:1-II:C, I:C-II:1; disulfide I:3-II:3; configuration not given here), the T/C [4] was 115 % of control, the T/C [5] was 96 % of control and the T/C [6] was 74 % of control.
`O=c1ssc(=Nc2ccccc2)n1-c1ccccc1` was tested, and the T/C [7] was 88 % of control, the T/C [8] was 75 % of control and the T/C [9] was 98 % of control. For the same compound, the T/C (dose: 2400.0 mg/kg/injection, schedule: Q04DX004 (sc), vehicle: Klucel (hydroxypropylcellulose) (HPC)) was 189 % of control.
For `BrC1c2cccc3cccc(c23)C1Br` (stereo not given), the T/C [10] was 186 % of control and the T/C [11] was 36 % of control and 39 % of control.
For `Nc1nnc[se]1`, the T/C (dose: 50.0 mg/kg/injection, schedule: Q04DX004 (sc), vehicle: saline with Tween-80) was 58 % of control, the T/C (dose: 100.0 mg/kg/injection, schedule: Q04DX004 (sc), vehicle: saline with Tween-80) was 33 % of control and the T/C (dose: 200.0 mg/kg/injection, schedule: Q04DX004 (sc), vehicle: saline with Tween-80) was 34 % of control. For the same compound, the T/C (dose: 400.0 mg/kg/injection, schedule: Q04DX004 (sc), vehicle: saline with Tween-80) was 23 % of control.
`CCOC(=O)c1cn(C)c2c1C(O)=C(C(=O)OC)CC(=O)N2` was tested, and the T/C (dose: 225.0 mg/kg/injection, schedule: Q04DX004 (sc), vehicle: saline with Tween-80) was 95 % of control, the T/C (dose: 450.0 mg/kg/injection, schedule: Q04DX004 (sc), vehicle: saline with Tween-80) was 52 % of control and the T/C (dose: 1800.0 mg/kg/injection, schedule: Q04DX004 (sc), vehicle: saline with Tween-80) was 62 % of control.
In the case of `CCCCCCC(=O)CC(SCC)c1ccccc1Cl` (stereo not given), the T/C [10] was 94 % of control, the T/C [1] was 92 % of control and the T/C [11] was 99 % of control.
`O=CC(O)C(O)C(O)C(O)C(=O)O.[NH-]C1CCCCC1[NH-].[Pt+2]` (stereo not given) was tested, and the T/C (dose: 9.38 mg/kg/injection, schedule: Q04DX004 (sc), vehicle: suspension in saline) was 44 % of control and the T/C (dose: 18.75 mg/kg/injection, schedule: Q04DX004 (sc), vehicle: suspension in saline) was 62 % of control.
In the case of `O=C1NC(=O)NC(C(=O)O)N1`, the T/C (dose: 50.0 mg/kg/injection, schedule: Q04DX004 (sc), vehicle: Klucel (hydroxypropylcellulose) (HPC)) was 101 % of control, the T/C [4] was 67 % of control and the T/C [5] was 114 % of control. For the same compound, the T/C [7] was 108 % of control, the T/C [6] was 91 % of control and the T/C [8] was 95 % of control. For the same compound, the T/C [9] was 58 % of control.
In the case of `NC(=O)c1ncn2c(=O)n(CCCl)nnc12`, the T/C (dose: 25.0 mg/kg/injection, schedule: Q04DX004 (sc), vehicle: suspension in saline) was 214 % of control and the T/C (dose: 50.0 mg/kg/injection, schedule: Q04DX004 (sc), vehicle: suspension in saline) was 72 % of control.
`c1ccc([P+](c2ccccc2)(c2ccccc2)c2ccccc2)cc1` was tested, and the T/C (dose: 5.0 mg/kg/injection, schedule: Q04DX004 (sc), vehicle: saline) was 105 % of control, the T/C (dose: 10.0 mg/kg/injection, schedule: Q04DX004 (sc), vehicle: saline) was 107 % of control and the T/C (dose: 20.0 mg/kg/injection, schedule: Q04DX004 (sc), vehicle: saline) was 68 % of control.
In the case of `O=c1[nH]c(=O)n(C2CC(O)C(CO)O2)cc1C(F)(F)F` (stereo not given), the T/C (dose: 100.0 mg/kg/injection, schedule: Q01DX010 (sc), vehicle: saline) was 202 % of control, the T/C [2] was 104 % of control and the T/C [3] was 73 % of control.
`COc1cccc2c1C(=O)c1c(O)c3c(c(O)c1C2=O)C[C@@](O)(/C(C)=N/NC(=O)c1ccccc1)C[C@@H]3OC1CC(N)C(O)C(C)O1` (stereo not given in full) was tested, and the T/C (dose: 18.75 mg/kg/injection, schedule: Q04DX004 (sc), vehicle: water) was 117 % of control and the T/C (dose: 37.5 mg/kg/injection, schedule: Q04DX004 (sc), vehicle: water) was 123 % of control.
